{
  "source": "patent US20120177693A1",
  "about": "“DEEP LUNG PULMONARY DELIVERY OF TREPROSTINIL” (Aradigm Corporation, priority 2008, published 2012)",
  "origin": "cited, not measured here",
  "conditions": "inhaled; Voswinckel et al.; cited from earlier work",
  "data": [
    {"smiles": "CC#CCC(C)[C@H](O)/C=C/[C@@H]1[C@H]2C/C(=C/CCCC(=O)O)C[C@H]2C[C@H]1O", "note": "(some centres unmarked) [iloprost]", "values": [
      {"measurement": "Plasma half-life", "result": "about 8 min"},
      {"measurement": "Time of peak plasma levels", "result": "immediately after the completion of the inhalation session"}
    ]}
  ]
}
